Experimental data taken from patent publication US9351951B2, “Prevention of proteomic and genomic damage by dicarbonyl substrates of Glo 1” (University of Warnick, priority 2010, dated 2016).

Columns and labels:
[1] = tested on: HepG2 cells; test: Frameshift mutation-dependent GFP reporter in HepG2 cells; type: cell-based, human; conditions: 400 μM MG
Procedure: The pEGFP-CA/T12 vector is a reporter for efficiency of transfection while pEGFP-CA13 vector is a reporter of frameshift mutation induced by MG.^30 HepG2 cells (2×10^5 cells/well) were cultured in 12-well plates for 24 h, the MEM medium removed, the cells washed with serum free medium and replaced with DNA/lipofectamine complexes in serum free medium—transfection medium (Lipofectamine 2000 reagent, 2 μl; (1.8 μg pEGFP-CA13 or pEGFP-CA/T12; 2.0 ml serum free medium)—and incubated for 5 h at 37° C. The transfection medium was removed and replaced with complete MEM medium supplemented with 10% FCS and 2 mM glutamine) and incubated for 48 h. Transfection efficiency was assessed quantitatively by flow cytometry. […] Thereafter, cells were washed with phosphate-buffered saline (PBS) and analysed for GFP expression by flow cytometry.

[2] = in vitro; conditions: human, BJ fibroblasts
[3] = tested on: Glo1; test: Glo1 mRNA by real-time RT-PCR in cultured cells; type: cell-based, human; conditions: for induction of Glo1 expression: known nrf2 activators, data not shown
Procedure: (§1) Cell Culture Human hepatoma HepG2 cells and human BJ fibroblasts were cultured in Eagle's Minimum Essential Medium (MEM) medium with 10% foetal calf serum (FCS) and 2 mM glutamine under an atmosphere of 5% CO2 in air, 100% humidity and 37° C. Where sulforaphane was used, the R-stereoisomer was used. R-Sulforaphane (SFN) and allyl isothiocyanate (AITC) were purchased from Sigma-Aldrich (Poole, Dorset, UK).
Real-Time PCR Total RNA was extracted from cultured cells which were treated with SFN, AITC using RNeasy Mini Kit (QIAGEN). cDNAs were synthesized with oligo (dT)18 primer and BioScript reverse transcriptase (BIOLINE). Human GLO1 and ACTB (β-actin reference gene) mRNA were quantified by real-time RT-PCR SYBR green method on ABI 7500 fast real-time PCR system. The following primers were used to amplify GLO1, forward 5′-[…]-3′ (SEQ ID NO: 5) and reverse 5′-[…]-3′ (SEQ ID NO: 6). The reference gene ACTB was amplified with primers 5′-[…]-3′ SEQ ID NO: 7)(forward) and 5′-[…]-3′ (SEQ ID NO: 8)(reverse).

[4] = tested on: Glo1; conditions: 2 μM SFN, over 16 h, BJ fibroblasts
Procedure: as §1

[5] = tested on: HepG2 cells; conditions: 2 μM SFN
Procedure: (§2) Other Methods. Activity of Glo1 was determined by measuring the initial rate of isomerisation of the hemithioacetal formed from methylglyoxal and GSH to S-D-lactoylglutathione followed spectrophotometrically at 240 nm.^43 The concentration of MG in cells and culture medium was determined by stable isotopic dilution analysis liquid chromatography with tandem mass spectrometric detection.^4 ROS formation was assessed with dichlorodihydrofluorescein diacetate (H2DCFDA), monitoring the generation of dichlorofluorescein (DCF) fluorescence. HepG2 cells and BJ fibroblasts were incubated with H2DCFDA for 30 min, washed in PBS and DCF fluorescence quantified by flow cytometry.^44

[6] = tested on: methylglyoxal; conditions: 24 h post-treatment
Procedure: as §2

[7] = tested on: BJ fibroblasts
Excerpt: Normal ageing may be modelled in human cells in vitro by cell senescence.

[8] = tested on: BJ fibroblasts; conditions: 2 μM SFN, after 48 h
[9] = tested on: HMEC-1 endothelial cells; conditions: collagen conditioned with medium from BJ cells incubated with 2 μM SFN for 24 h
Procedure: The culture medium was then removed, incubated with human type IV collagen for 24 h and human microvascular endothelial HMEC-1 cell attachment studied as described^13a. […] The medium was then removed and added to wells of a 96-well plate (96-well; Costar; Corning) that had be prior coated type IV collagen. For the coating, 100-□l of 100 µg/ml of type IV collagen (human placental, type IV, pepsin extracted) was added to each well and incubated for 24 h at 37° C. Wells were then washed with phosphate buffered saline. Collagen coated wells were incubated with medium from BK cell cultures for 24 h at 37° C. and then washed with phosphate buffered saline. HMEC-1 endothelial cells (2.5×10^4 cells/well) were plated on to the collagen substrates and incubated for 1 h at 37° C. Non-adherent cells were removed and adherent cells were quantified by staining with 3-(4,5-dimethylthiazole-2-yl)-2,5-diphenyltetrazolium bromide, lysed with dimethylsulfoxide and the blue formazan product detected, by absorbance at 560 nm (Paul, R G, Bailey, A J: The effect of advanced glycation end-product formation upon cell-matrix interactions. Int J Biochem Cell Biol 31: 653-660, 2004).

[10] = tested on: GLO1 promoter (ARE1); conditions: ARE1 alone, HepG2 cells, 4 μM SFN 24 h
Procedure: Transfection and Luciferase Assay of Custom Vectors For luciferase assays, 2×10^5 HepG2 cells per well were plated into 24-well plates and cultured overnight. The cells were transfected with 0.5 μg reporter vector and 10 ng pRL-TK plasmid using Lipofectamine 2000 according to manufacture's protocol. The empty pGL3-basic vector was used as control. After 24 h, 4 μM SFN was added to the cells and vehicle (DMSO) added to control. After 24 h, the cells were washed with PBS and luciferase activity assay performed immediately or samples stored at −80° C. until analysis. For the reporter assay, 100 μl Cell Culture Lysis Reagent (CCLR, Promega) was added to cell extracts and shaken gently for 30 min. The activity mixture was centrifuged (12,000 g, 5 min, 4° C.) and an aliquot (20 μl) of supernatant used in the reporter assay. The luciferase activity was determined using a Dual Luciferase Reporter Assay System (Promega). The relative luciferase activities were normalized by co-transfection of pRL-TK vector.

[11] = tested on: BJ fibroblasts; test: cells; conditions: Homo sapiens, Fibroblast, 24 h, read-out: cell viability during exposure to hydrogen peroxide
[12] = tested on: HepG2 cells; test: Growth inhibition of HepG2 cells by MG; type: cell-based; conditions: Homo sapiens, n=8, read-out: median growth inhibitory concentration
[13] = tested on: BJ fibroblasts; conditions: scavenging of MG; reference 28; cited from earlier work

## C=CCN=C=S [AITC, allyl isothiocyanate]
[1]; prior 2 μM AITC
  frameshift mutations induced by MG: prevented
[1]; prior exposure to 2 μM AITC
  frameshift mutation-dependent GFP induced by MG: prevented

## OO [hydrogen peroxide]
[2]
  viability at 200 μM: 74%

## CC(C)(C)c1cc(O)ccc1O [tert-butylhydroquinone]
[3]
  induction of Glo1 expression: not potent inducers

## C[S@@+]([O-])CCCCN=C=S [SFN, R-Sulforaphane]
[3]; 2 μM SFN time course, BJ fibroblasts
  time post-treatment at which Glo1 mRNA maximised: 12 h
[3]; dose response, BJ fibroblasts
  Glo1 mRNA: dose-dependent increase
[4]
  Glo1 protein: increase in Glo1 protein progressively
[5]
  endogenous ROS: decrease
[5]; 20 μM hydrogen peroxide
  ROS induced by exogenous hydrogen peroxide: decrease
[6]; HepG2 culture medium
  concentration of methylglyoxal in the cell culture: marked decrease
[6]; BJ fibroblasts, 2 μM SFN
  concentration of MG in cells: decreased concentration
  concentration of MG in the cell culture medium: decreased concentration
[7]; BJ cells, 1.0 μM SFN per passage from cumulative PDL 30
  effect on Hayflick limit: allowed escape from the Hayflick limit
[7]; BJ cells, 2×0.5 μM SFN per passage from cumulative PDL 45, control limit PDL 49
  Hayflick limit, cumulative PDL: 50.5
[7]; BJ fibroblasts, 1.0 μM SFN per passage, beyond cumulative PDL 53
  increase in cell number per passage: > 3 fold
[8]
  cellular protein MG-H1 residue content: decrease
[9]
  HMEC-1 endothelial cell adhesion to type IV collagen: Improved
[10]
  Glo1 transcriptional response of luciferase reporter: maximal induction
[11]
  viability at 0.5 µM: 88%

## OCc1c[nH]c2ccccc12 [indole-3-carbinol]
[3]
  induction of Glo1 expression: not potent inducers

## CC(=O)C=O [MG, methylglyoxal]
[12]
  IC50: 1.07 ± 0.08 mM
[1]
  frameshift mutation-dependent GFP: increased
  frameshift mutations: increased

## C=CCSSCC=C [diallyldisulphide]
[3]
  induction of Glo1 expression: not potent inducers

## N=C(N)NN [aminoguanidine]
[13]
  effect on cytotoxicity induced by exogenous hydrogen peroxide in vitro: protective
